Data reported in patent publication US10179774B2, “Synthesis of chirally purified substituted benzothiazole diamines” (priority 2007, dated 2019).

What was measured:
dogs = conditions: single oral dose, 'and above'; cited from earlier work
humans = conditions: cited from earlier work
monkeys = conditions: single oral dose; cited from earlier work
rodents [1] = tested on: rodents
rodents [2] = conditions: single oral dose, 'and above'; cited from earlier work

## CCCNC1CCc2nc(N)sc2C1 (stereo not shown) [pramipexole]
dogs
  dose at which vomiting occurred: ≥ 0.0007 mg/kg
humans; human subjects, initial single dose
  initial single dose not tolerated: greater than 0.20 mg
humans; humans, 'as low as'
  dose shown to cause somnolence: 1.5 mg
monkeys
  dose at which major excitation was displayed: 3.5 mg/kg
Rodents [1]; human equivalent of 70-105 mg/kg in rodents
  equivalent human dose of the rodent lethal dose: 7 to 12 mg/kg
Rodents [1]; rodents, in vivo
  equivalent human dose of the rodent lethal dose for a 70 kg individual: 500 to 850 mg
Rodents [2]
  doses at which death occurred: 70 to 105 mg/kg
